In patent US20190262355A1, “COMBINATION OF A BRD4 INHIBITOR AND AN ANTIFOLATE FOR THE THERAPY OF CANCER” (CeMM-Forschungszentrum für Molekulare Medizin GmbH, priority 2016, published 2019):
No end group written: not given here.

Key:
[1] = target: T1, chromatin-associated MTHFD1 (Homo sapiens, UniProt P11586); assay: Western blot of chromatin associated proteins: MTHFD1; type: cell-based; settings: HAP1 cells, two-hour treatment, 0.5 μM (FIG. 2C)
T1 construct: endogenous in cells; host or cells: HAP1
T1 sequence (P11586 1-935): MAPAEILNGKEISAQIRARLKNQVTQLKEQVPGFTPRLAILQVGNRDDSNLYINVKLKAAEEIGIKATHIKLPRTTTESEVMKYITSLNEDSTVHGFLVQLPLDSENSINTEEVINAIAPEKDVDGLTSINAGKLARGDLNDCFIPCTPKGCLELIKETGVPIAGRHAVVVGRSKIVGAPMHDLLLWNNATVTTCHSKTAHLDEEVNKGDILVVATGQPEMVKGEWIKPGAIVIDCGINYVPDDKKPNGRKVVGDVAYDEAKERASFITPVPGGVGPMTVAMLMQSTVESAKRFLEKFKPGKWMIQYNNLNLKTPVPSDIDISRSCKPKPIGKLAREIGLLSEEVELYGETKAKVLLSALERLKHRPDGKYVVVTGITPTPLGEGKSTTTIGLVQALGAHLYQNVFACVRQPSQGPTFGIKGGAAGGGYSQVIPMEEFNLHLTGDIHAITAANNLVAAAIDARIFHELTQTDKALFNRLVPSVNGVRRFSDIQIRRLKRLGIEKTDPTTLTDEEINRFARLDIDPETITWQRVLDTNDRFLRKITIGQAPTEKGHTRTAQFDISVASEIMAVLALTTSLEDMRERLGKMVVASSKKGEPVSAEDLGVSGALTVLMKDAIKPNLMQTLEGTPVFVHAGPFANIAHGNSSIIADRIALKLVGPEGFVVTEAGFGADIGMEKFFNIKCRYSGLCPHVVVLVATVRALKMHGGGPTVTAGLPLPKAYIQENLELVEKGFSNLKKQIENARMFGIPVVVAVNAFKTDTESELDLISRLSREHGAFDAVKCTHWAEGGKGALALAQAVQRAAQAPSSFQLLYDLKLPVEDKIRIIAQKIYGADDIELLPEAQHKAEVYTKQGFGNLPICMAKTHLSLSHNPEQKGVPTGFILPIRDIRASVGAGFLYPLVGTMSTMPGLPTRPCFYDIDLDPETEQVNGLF
Description: (§1) For Western Blot, proteins were separated on polyacrylamide gels with SDS running buffer (50 mM Tris, 380 mM Glycine, 7 mM SDS) and transferred to nitrocellulose blotting membranes. All membranes were blocked with blocking buffer (5% (m/v) milk powder (BioRad) in TBST (Tris-Buffered Saline with Tween: 50 mM Tris (tris (hydroxymethyl)aminomethane), 150 mM NaCl, 0.05% (v/v) Tween 20, adjusted to pH 7.6). Proteins were probed with antibodies against BRD4 (ab128874, 1:1000, Abcam), Actin (ab16039, 1:1000, Abcam), MTHFD1 (ab70203, Abcam; H120, Santa Cruz; A8, Santa Cruz; all used at 1:1000), GFP (G10362, 1:1000, Life Technology), RCC1 (C-20, 1:1000, Santa Cruz), β-Tubulin (T-4026, 1:1000, Sigma), SHMT1 (ab186130, 1:1000, Abcam) and H2B (ab156197, 1:1000, Abcam) and detected by HRP (horseradish peroxidase) conjugated donkey anti-rabbit IgG antibody (ab16284, 1:5000, Abcam) or donkey anti-mouse IgG antibody (Pierce) and visualized with the Pierce ECL Western Blotting substrate (Amersham), according to the provided protocol.
Cell fractionation and chromatin enrichment was carried out as previously described^29 with some adaptations. […]

[2] = test system: WT-KBM7 cells; assay: Cell cycle profile by PI staining and FACS (diploidization); type: cell-based, human; settings: treated overnight during one week, PI incorporation and FACS (FIG. 6D)
Description: For cell cycle analysis, 1 million cells were fixed with 70% ethanol for 24 hours, washed with PBS/1% BSA/0.1% Tween and incubated with RNase for 30 minutes. Nuclei were stained with 5 μg/ml PI (propidium iodide, Sigma) for 10 minutes prior to FACS analysis (BD FACSCalibur Flow Cytometer).
The prerequisite for effective GT genetic screens is a haploid system where monoallelic disruptive GT integration results in gene knock-out (KO). Therefore, KBM7 cells, a chronic myeloid leukemia cell line with near haploid karyotype, were chosen for the generation of the BRD4 reporter cell lines as previously described^15. […] Propidium iodide (PI) incorporation and FACS analysis were used to assay the cell cycle profile of several REDS clones in order to select a haploid clone suitable for GT-based genetic screen. […] REDS1 was the only clonal cell line with haploid karyotype (see FIG. 6B), also confirmed by metaphase spreads (see FIG. 6C).

[3] = target: T2, GST-BRD4 (full length) (Homo sapiens, UniProt O60885); assay: AlphaLISA assay of acetylated MTHFD1 peptides with GST-BRD4; type: binding
T2 construct: AlphaLISA assay performed with the indicated MTHFD1 acetylated peptides and GST-BRD4 (full length); made in house
Description: The Amplified Luminescent Proximity Homogenous Assay (AlphaLISA©), a homogenous and chemiluminescence-based method, was performed to explore the direct interaction of BRD4 and acetylated substrates.
Briefly, in this assay, the biotinylated MTHFD1 acetylated peptides (possible substrates) are captured by streptavidin-coupled donor beads. GST-tagged BRD4 (produced as previously described^15) is recognized and bound by an anti-GST antibody conjugated with an acceptor bead. In case of interaction between BRD4 and one acetylated peptide, the proximity between the partners (<200 nm) allows that the excitation (680 nm wavelength) of a donor bead induces the release of a singlet oxygen molecule (^1O2) that then triggers a cascade of energy transfer in the acceptor bead, resulting in a sharp peak of light emission at 615 nm.
GST-BRD4 and each of the MTHFD1 acetylated peptides were incubated together. After 30 minutes, GSH (Glutathione) Acceptor beads (PerkinElmer) were added and after another incubation time of 30 minutes, Streptavidin-conjugated donor beads (PerkinElmer) were added. The signal (alpha counts) was read by the EnVision 2104 Multilabel Reader (PerkinElmer).

[4] = target: T3, BRD4-MTHFD1 interaction (Homo sapiens, UniProt O60885+P11586); assay: MTHFD1 pull-down on HAP1 whole cell lysates (BRD4-MTHFD1 interaction); type: binding; settings: HAP1 whole cell lysates treated with 50 μM (FIG. 9I)
T3 construct: MTHFD1 pull-down performed on HAP1 whole cell lysates treated with 50 μM (S)-JQ1, MTX; endogenous in cells; host or cells: HAP1
Description: For immunoprecipitation, 1 mg of protein extract was incubated overnight at 4° C. with 10 μl of Dynabeads (either A or G, Life technology) preincubated for 2 hours at 4° C. with 1 μg of BRD4 (ab128874, Abcam), MTHFD1 (A8, Santa Cruz) or GFP (G10362, Life Technology) antibodies.

[5] = test system: MTHFD1 nuclear localization; assay: Nuclear vs cytosol fractionation Western blot in HAP1 cells; type: cell-based, human; settings: 72 hours (FIG. 9D)
Description: as §1

[6] = test system: MTHFD1 binding to genomic loci; assay: ChIP-Seq of MTHFD1 genomic binding in HAP1 cells; type: cell-based, human; settings: 2 h treatment (1 μM per FIG. 16A)
Description: Three 15 cm dishes with cells at 70-80% of confluency were used for one ChIP experiment. Briefly, cells were cross-linked with 1% formaldehyde for 10 minutes at room temperature, and then quenched with 125 mM glycine for 5 minutes at room temperature. Then, cells were washed with cold PBS, collected in 15 ml tubes and washed again with cold PBS by centrifugation at 1200 rpm for 5 minutes at 4° C. and finally snap frozen.
ChIP was performed as described^18 by using BRD4 (Bethyl Laboratories, Inc.) and MTHFD1 (sc-271413, Santa Cruz) antibodies. In brief, crosslinked cell lysates were sonicated in order to shred the chromatin into 200-500 bp fragments. Fragmented chromatin was incubated overnight at 4° C. with antibodies, followed by 2 hours at 4° C. with pre-blocked Dynabeads Protein G (ThermoFisher Scientific). […]
Reads containing adapters were trimmed using Skewer^19 and aligned to the hg19/GRCh37 assembly of the Human genome using Bowtie2^20 with the “—very-sensitive” parameter and duplicate reads were marked and removed with sambamba. Library quality was assessed with the phantomPeakQualtools scripts^21. For visualization exclusively, the inventors generated genome browser tracks with the genomeCoverageBed command in BEDTools^22 and normalized such that each value represents the read count per base pair per million mapped and filtered reads. […]

Molecule: Cc1sc2c(c1C)C(c1ccc(Cl)cc1)=N[C@@H](CC(=O)NCCCCNC(=O)COc1cccc3c1C(=O)N(C1CCC(=O)NC1=O)C3=O)c1nnc(C)n1-2 (some centres unmarked) [dBET1]
- MTHFD1 on chromatin after degronimid treatment [1]: MTHFD1 was lost from chromatin

Molecule: Cc1sc2c(c1C)C(c1ccc(Cl)cc1)=N[C@H](CC(=O)OC(C)(C)C)c1nnc(C)n1-2 [(R)-JQ1]
- diploidization of WT-KBM7 (cell cycle profile) [2]: Only (S)-JQ1 treatment induced WT-KBM7 diploidization

Molecule: MTHFD1(47-66)K56ac: synthetic biotinylated MTHFD1 peptide, residues 47-66, acetylated at lysine 56 (DDSNLYINVK(Ac)LKAAEEIGIK; also: biotinylated, site not given here; UniProt P11586 47-66, looked up, fragment)
- increase of the alphaLISA signal ([3]; peptide used at high concentration (FIG. 9F)): ~5 fold
- alphaLISA peptide titration with GST-BRD4 ([3]; titration (FIG. 9G)): dose-responsive manner
- effect on BRD4-MTHFD1 interaction in MTHFD1 pull-down [4]: not able to inhibit the BRD4-MTHFD1 interaction

Molecule: ginkgolic acid
- redistribution of MTHFD1 between nucleus and cytoplasm [5]: did not cause a redistribution of MTHFD1 between the nucleus and cytoplasm

Molecule: Cc1sc2c(c1C)C(c1ccc(Cl)cc1)=N[C@@H](CC(=O)NCCCCCCCCNC(=O)COc1cccc3c1C(=O)N(C1CCC(=O)NC1=O)C3=O)c1nnc(C)n1-2 (some centres unmarked) [dBET6]
- MTHFD1 binding to distinct genomic loci [6]: binding was lost
- MTHFD1 on chromatin after degronimid treatment [1]: MTHFD1 was lost from chromatin
